For series [1], the system named is HepG2 cells. The experiment in a line: Imaging a decrease in free thiol level in HepG2 cells under oxidative stress. Particulars: 10 min; for fluorescence from labeling of free thiols, solvent control cells: 50 μM, same imaging parameters; for change in cellular fluorescence intensity upon H2O2 pretreatment: H2O2 0.5 or 1 mM 15 min, probe 50 μM. Format: cell-based. The protocol: Imaging a Decrease in Free Thiol Level in HepG2 Cells Under Oxidative Stress by NAIA-5 or IAA
HepG2 cells were plated on a 8-well Nunc Lab-Tek chambered slide system and allowed to grow in complete medium at 37° C. with 5% CO2 to ca. 70% confluency. The cells were then pretreated with solvent vehicles, H2O2 (0.5 or 1 mM) or H2O2 (1 mM)+NAC (5 mM) in complete medium for 15 min at 37° C. The cells were washed with PBS and incubated with NAIA-5 or IAA (50 μM) in complete medium for 10 min at 37° C. After that, the cells were washed with PBS and fixed by 4% paraformaldehyde in PBS at room temperature for 15 min. The fixed cells were washed with PBS, permeabilized by PBS with 0.5 vol % Triton X-100 at room temperature for 30 min, washed again with PBS and incubated with a master mix solution containing CuSO4, THTPA, azide-fluor 545 and sodium ascorbate at final concentrations of 100, 500, 20 and 5000 μM respectively. After incubation in dark at room temperature for 1 h, the cells were washed with PBS and stained by Hoechst 33342 in PBS (final concentration=8.2 μM) at room temperature for 15 min. The cells were washed thrice with PBS and then imaged in PBS by confocal fluorescence microscopy.
(§1) Confocal fluorescence microscopy imaging was performed with a Zeiss laser scanning microscope 880 with a 20× water-immersion objective lens using ZEN 2.3 (Black Version) software (Carl Zeiss) with 3× magnification zoom-in. Hoechst 33342 was excited with a 405 nm diode laser, and emission was collected on a META detector between 371 and 507 nm. Fluor 545 was excited by a 561 nm diode laser and emission was collected on a META detector between 576 and 683 nm. Image analysis was performed by use of ImageJ. A region of interest (ROI) was created around individual cell, and cellular fluorescence intensity was measured. The reported average cellular fluorescence intensity was determined by averaging the measured intensity from 30 different cells from 3 different biological replicates/group. Statistical analyses were performed with a two-tailed Student's t-test (MS Excel).
These attractive features indicate the good potential of using NAIs/NAIAs to trap cellular thiols in live cells that should allow better identification of cysteine oxidative modifications. To explore this potential application, we first sought to capture and image free thiols by NAIA-5 in live HepG2 cells by confocal fluorescence microscopy (FIG. 4A). HepG2 cells were pretreated with solvent vehicles, H2O2 or H2O2+N-acetyl cysteine (NAC), where NAC can scavenge H2O2 and relieve the oxidative stress in the HepG2 cells. After the pretreatment, the cells were incubated with NAIA-5 or IAA (50 μM) for 10 min to ligand and snap-shot free cellular thiols. […]

The test system of series [2] is HepG2 cells. The series is described as follows: Confocal fluorescence imaging of HepG2 cells labeled with probe for different time intervals. Format: cell-based. Particulars: 10 μM; for cellular fluorescence intensity: 15, 30 and 60 min. The protocol:
HepG2 Cells Labeled by NAIA-5 or IAA with Different Time Intervals for Imaging Experiments
HepG2 cells were plated on a 8-well Nunc Lab-Tek chambered slide system (ThermoFisher Scientific; 177402) and allowed to grow in complete medium at 37° C. with 5% CO2 to ca. 70% confluency. The cells were incubated with NAIA-5 and IAA (10 μM) respectively in complete medium for the indicated time interval, washed with PBS and then fixed by 4% paraformaldehyde in PBS at room temperature for 15 min. After washing with PBS, the fixed cells were permeabilized by PBS with 0.5 vol % Triton X-100 at room temperature for 30 min. The cells were then washed and incubated with a master mix solution containing CuSO4, THTPA, azide-fluor 545 and sodium ascorbate at final concentrations of 100, 500, 20 and 5000 μM respectively. After incubation in dark at room temperature for 1 h, the cells were washed with PBS and stained by Hoechst 33342 in PBS (final concentration=8.2 μM) at room temperature for 15 min. The cells were washed thrice with PBS and then imaged by confocal fluorescence microscopy. Hoechst 33342 was excited with a 405 nm diode laser, and emission was collected on a META detector between 371 and 507 nm. Fluor 545 was excited by a 561 nm diode laser and emission was collected on a META detector between 576 and 683 nm. Image analysis was performed by use of ImageJ. A region of interest (ROI) was created around individual cell, and cellular fluorescence intensity was measured. The reported average cellular fluorescence intensity was determined by averaging the measured intensity from 30 different cells from 3 different biological replicates/group. Statistical analyses were performed with a two-tailed Student's t-test (MS Excel).
as §1
To examine the underlying mechanism of better cysteine labeling in live cells by NAIA, we conducted confocal fluorescence imaging experiments on HepG2 cells treated with NAIA-5 and IAA respectively (both at 10 μM). After treatment for the indicated time intervals, the cells were washed with PBS, fixed by 4% paraformaldehyde in PBS and reacted with azide-fluor 545 through CuAAC. The stained cells were then washed with PBS and imaged by confocal fluorescence microscopy. […] In view of the fast and better labeling of reactive cysteines in live cells, we anticipate that NAIAs can be good candidates for capturing cysteines with dynamic changes in reactivity/modifications in cells. The ability of NAIAs to work nicely with confocal fluorescence microscopic imaging also illustrates their potential application as imaging probes for cellular cysteine reactivity. […]

Take `C#CCCCCNC(=O)CI` [IAA, N-Hex-5-ynyl-2-iodoacetamide, reference compound]: in the series with HepG2 cells [1], the “fluorescence from labeling of free thiols, solvent control cells” value was “almost no fluorescence can be detected in IAA-labeled cells” and the “change in cellular fluorescence intensity upon H2O2 pretreatment” value is listed as “cannot see statistically significant changes in fluorescence intensity”. For the same compound, in the series on HepG2 cells [2], the “labeling of cytosolic and nuclear proteins (colocalization with Hoechst channel)” value was “lower Manders' colocalization coefficient”; the cellular fluorescence intensity result is “much weaker fluorescence at 15 min”.

With `C#CCCCCNC(=O)COc1ccc2c(ccn2C(=O)C=C)c1` [NAIA-5], in the series with HepG2 cells [1], the “fluorescence from labeling of free thiols, solvent control cells” value was “strong fluorescence from NAIA-5 labeling” and the “change in cellular fluorescence intensity upon H2O2 pretreatment” value was “H2O2 dose-dependent decrease in cellular fluorescence intensity”. In the series on HepG2 cells [2], the “labeling of cytosolic and nuclear proteins (colocalization with Hoechst channel)” value is “good labeling of proteins in both cytosol and nucleus”; the cellular fluorescence intensity result is reported as “Significantly higher fluorescence intensities were found in cells treated with NAIA-5 than IAA”. Also, the cellular permeability result with HepG2 cells [2] (inferred from live-cell imaging) is recorded as “good cellular permeability”.

These data come from patent US20240103005A1, “N-ACRYLOYLINDOLES AND METHODS OF USE” (The University of Hong Kong, priority 2022, published 2024).
